# According to ChEMBL document CHEMBL1201862, “PubChem BioAssay data set” (2004):
# Active and inactive are the calls of the source.
# Columns and labels:
# [1] = viability of uninfected HEp-2 cells – cell-based, HTS, cytotoxicity control for RSV inhibitor project, dose response (AID 2410); assay type: functional; conditions: human respiratory syncytial virus
# [2] = molecular target: Cytochrome P450 2C9 (Homo sapiens, UniProt P11712)
# [3] = molecular target: Cytochrome P450 2C19 (Homo sapiens, UniProt P33261); assay: Cytochrome panel assay with activity outcomes. Panel member name: p450-cyp2c19 Compounds with AC50 equal or less than 10 uM are considered active; assay type: functional; conditions: read-out: AC50
# Sequence of Cytochrome P450 2C19 (P33261 whole entry): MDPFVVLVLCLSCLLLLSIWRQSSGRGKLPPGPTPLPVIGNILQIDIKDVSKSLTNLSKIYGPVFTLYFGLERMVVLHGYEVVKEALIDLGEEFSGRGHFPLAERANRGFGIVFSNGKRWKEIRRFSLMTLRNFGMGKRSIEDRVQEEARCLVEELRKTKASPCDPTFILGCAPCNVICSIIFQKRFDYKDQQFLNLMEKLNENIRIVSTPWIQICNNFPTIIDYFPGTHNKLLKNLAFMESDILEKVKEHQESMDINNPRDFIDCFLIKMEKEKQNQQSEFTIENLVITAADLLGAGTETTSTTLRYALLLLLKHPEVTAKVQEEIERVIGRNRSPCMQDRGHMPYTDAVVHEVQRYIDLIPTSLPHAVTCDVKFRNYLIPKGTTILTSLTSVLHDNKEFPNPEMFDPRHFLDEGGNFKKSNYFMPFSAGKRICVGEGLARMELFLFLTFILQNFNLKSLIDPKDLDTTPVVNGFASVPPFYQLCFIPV
# [4] = molecular target: T1, Cytochrome P450 1A2 (Homo sapiens, UniProt P05177);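 also: PubChem cytochrome P450 panel assay, CYP1A2 panel member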
# T1 sequence (P05177 whole entry): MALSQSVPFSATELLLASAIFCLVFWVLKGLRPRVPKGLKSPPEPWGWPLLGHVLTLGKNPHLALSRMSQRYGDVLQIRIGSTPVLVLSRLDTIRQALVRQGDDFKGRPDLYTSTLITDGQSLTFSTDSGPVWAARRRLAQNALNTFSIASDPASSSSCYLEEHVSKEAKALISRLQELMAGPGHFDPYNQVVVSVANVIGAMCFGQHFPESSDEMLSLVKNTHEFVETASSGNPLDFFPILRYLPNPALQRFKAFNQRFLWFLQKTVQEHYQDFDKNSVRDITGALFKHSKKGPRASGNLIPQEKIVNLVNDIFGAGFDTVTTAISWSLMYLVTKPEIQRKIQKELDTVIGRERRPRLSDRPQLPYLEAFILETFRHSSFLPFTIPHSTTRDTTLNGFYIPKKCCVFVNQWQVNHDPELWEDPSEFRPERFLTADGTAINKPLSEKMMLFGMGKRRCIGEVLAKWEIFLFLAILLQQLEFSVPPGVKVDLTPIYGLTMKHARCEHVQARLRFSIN
# [5] = molecular target: T2, Heat shock factor protein 1 (Mus musculus, UniProt P38532); assay: decrease of HSF1-responsive luciferase luminescence – cell-based, NIH3T3, dose retest, confirmation (AID 2382); assay type: functional;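 also: NIH3T3 fibroblasts with HSF1-driven luciferase reporter stressed by proteasome inhibitor MG132; luminescence from HSF1-driven luciferase expression after 8 hours of MG132 stress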
# T2 sequence (P38532 whole entry): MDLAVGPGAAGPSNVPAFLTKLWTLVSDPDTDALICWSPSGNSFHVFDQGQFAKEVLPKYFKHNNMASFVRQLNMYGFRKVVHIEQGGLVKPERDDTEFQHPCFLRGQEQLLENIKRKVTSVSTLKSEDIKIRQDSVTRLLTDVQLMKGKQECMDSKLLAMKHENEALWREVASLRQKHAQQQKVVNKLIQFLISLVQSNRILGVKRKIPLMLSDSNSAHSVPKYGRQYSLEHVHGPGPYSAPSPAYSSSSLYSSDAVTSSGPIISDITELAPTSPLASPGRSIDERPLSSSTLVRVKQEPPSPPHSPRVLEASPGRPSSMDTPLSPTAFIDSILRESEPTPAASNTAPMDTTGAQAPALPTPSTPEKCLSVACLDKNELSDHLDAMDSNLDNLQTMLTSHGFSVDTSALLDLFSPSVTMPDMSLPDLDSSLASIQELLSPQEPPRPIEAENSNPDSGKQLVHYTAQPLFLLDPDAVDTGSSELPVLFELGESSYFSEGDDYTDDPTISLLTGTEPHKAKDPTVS
# [6] = molecular target: Cytochrome P450 2D6 (Homo sapiens, UniProt P10635);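 also: CYP2D6 member of a cytochrome P450 panel assay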
# Sequence of Cytochrome P450 2D6 (P10635 whole entry): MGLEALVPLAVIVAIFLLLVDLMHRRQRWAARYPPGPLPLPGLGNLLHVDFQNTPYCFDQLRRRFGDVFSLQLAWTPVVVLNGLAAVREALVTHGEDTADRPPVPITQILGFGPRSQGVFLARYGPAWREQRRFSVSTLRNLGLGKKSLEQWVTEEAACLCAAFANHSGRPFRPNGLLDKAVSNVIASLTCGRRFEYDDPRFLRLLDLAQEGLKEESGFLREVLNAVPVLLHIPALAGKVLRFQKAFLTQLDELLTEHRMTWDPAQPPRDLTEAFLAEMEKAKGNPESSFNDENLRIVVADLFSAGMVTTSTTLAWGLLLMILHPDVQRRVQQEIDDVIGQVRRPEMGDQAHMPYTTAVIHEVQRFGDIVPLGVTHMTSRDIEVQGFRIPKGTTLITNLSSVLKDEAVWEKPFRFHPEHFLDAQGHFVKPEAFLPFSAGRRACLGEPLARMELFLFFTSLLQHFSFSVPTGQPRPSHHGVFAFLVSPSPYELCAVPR
# [7] = molecular target: Cytochrome P450 3A4 (Homo sapiens, UniProt P08684);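 also: CYP3A4 tested as one member of a cytochrome P450 panel screen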
# Sequence of Cytochrome P450 3A4 (P08684 whole entry): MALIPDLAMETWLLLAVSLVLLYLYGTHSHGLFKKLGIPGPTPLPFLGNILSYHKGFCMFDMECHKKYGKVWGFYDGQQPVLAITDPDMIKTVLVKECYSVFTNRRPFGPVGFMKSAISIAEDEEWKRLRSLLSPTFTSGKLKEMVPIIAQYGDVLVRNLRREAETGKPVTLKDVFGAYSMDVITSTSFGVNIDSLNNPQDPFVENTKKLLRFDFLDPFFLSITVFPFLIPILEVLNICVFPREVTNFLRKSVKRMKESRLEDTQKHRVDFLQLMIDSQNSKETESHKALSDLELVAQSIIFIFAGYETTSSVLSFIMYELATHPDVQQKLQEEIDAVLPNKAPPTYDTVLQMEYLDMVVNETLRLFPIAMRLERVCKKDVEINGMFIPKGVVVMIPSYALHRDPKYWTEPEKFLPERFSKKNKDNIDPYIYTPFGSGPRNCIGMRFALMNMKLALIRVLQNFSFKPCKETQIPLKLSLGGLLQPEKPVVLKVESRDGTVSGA
# [8] = molecular target: T3, Streptokinase A (Streptococcus pyogenes serotype M1, UniProt P10520); assay: viability-normalized secreted streptokinase activity reduction – plasminogen activation absorbance, OD405, dose response (AID 1914); assay type: functional, Streptococcus pyogenes M1 GAS;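 also: secreted streptokinase activity via plasminogen activation per viability signal from cell pellet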
# T3 sequence (P10520 whole entry): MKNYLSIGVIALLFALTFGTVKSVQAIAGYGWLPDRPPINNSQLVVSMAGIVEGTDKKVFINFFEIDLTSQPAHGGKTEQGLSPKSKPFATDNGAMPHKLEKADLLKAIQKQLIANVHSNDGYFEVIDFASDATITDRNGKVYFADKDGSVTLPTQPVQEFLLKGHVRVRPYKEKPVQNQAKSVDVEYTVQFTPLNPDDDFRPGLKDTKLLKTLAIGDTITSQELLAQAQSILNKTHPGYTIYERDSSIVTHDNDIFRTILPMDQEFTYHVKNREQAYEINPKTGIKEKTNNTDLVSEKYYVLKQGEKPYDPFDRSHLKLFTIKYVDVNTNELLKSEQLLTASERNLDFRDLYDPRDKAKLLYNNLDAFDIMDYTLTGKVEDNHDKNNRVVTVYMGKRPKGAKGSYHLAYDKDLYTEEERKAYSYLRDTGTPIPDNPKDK
# [9] = test system: Streptococcus sp. 'group A'; assay: Streptococcus pyogenes SK(-)GAS viability under kanamycin – luminescence, BacTiterGlo, confirmation, counter-screen for streptokinase expression inhibitor project, dose response (AID 1900); assay type: functional, organism-based
# [10] = test system: Streptococcus; assay: GAS UMAA2166 growth inhibition – luminescence, BacTiterGlo, counter-screen for streptokinase expression inhibitor project, dose response (AID 1915); assay type: functional, organism-based;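 also: potency for reduction of bacterial viability or growth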
# [11] = Trypanosoma cruzi growth suppression in host cells – NIH3T3 host cells, beta-gal luminescence, confirmation (AID 2044); assay type: functional, cell-based;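 also: intracellular parasites grown in NIH/3T3 mouse fibroblasts as host cells; luminescent beta-galactosidase reporter signal from transgenic T. cruzi replicating inside host cells; inhibitors lower the luminescence signal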
# [12] = NIH3T3 cell viability loss – ATP luminescence, mouse fibroblasts, counter-screen, dose response (AID 2010); assay type: functional, cell-based;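 also: cells exposed to compound for about 90 hours before reading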
# Sequence of Cytochrome P450 2C9 (P11712 whole entry): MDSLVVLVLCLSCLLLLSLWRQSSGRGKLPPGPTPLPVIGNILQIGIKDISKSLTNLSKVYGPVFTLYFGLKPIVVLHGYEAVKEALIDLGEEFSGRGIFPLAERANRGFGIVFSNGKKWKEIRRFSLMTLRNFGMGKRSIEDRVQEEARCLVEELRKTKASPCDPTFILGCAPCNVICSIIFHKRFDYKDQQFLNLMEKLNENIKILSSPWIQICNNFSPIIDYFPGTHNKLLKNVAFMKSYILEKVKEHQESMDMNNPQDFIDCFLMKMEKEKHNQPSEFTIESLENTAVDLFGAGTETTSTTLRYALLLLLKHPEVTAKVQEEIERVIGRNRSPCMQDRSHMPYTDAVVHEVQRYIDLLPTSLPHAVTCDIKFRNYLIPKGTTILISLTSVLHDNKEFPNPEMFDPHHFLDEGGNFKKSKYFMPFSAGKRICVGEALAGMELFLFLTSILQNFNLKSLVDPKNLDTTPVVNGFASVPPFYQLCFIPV
compound,measurement,setting,value
Cc1cc2cc3c(cc2nc1SCC(=O)N1c2ccccc2CC1C)OCO3 (stereo not drawn),CC50,[1],34 µM (active)
Cc1ccc2nc(-c3ccccc3)c(CN(C)C)c(O)c2c1,AC50,[2],12.6 µM (inconclusive)
same,AC50,[3],20 µM (inconclusive)
same,AC50,[4],15.8 µM (inconclusive)
CCc1nc2ccc(C(=O)O)cc2nc1CC,EC50,[5],6.93 µM (active)
O=C(COC(=O)C1=COCCO1)Nc1ccc2c(c1)OCO2,EC50,[5],> 195 µM (not active)
COC(=O)CCC(=O)Nc1cccc(C(=O)Nc2cccc(Cl)c2)c1,AC50,[6],22.4 µM (inconclusive)
same,AC50,[7],0.398 µM (inconclusive)
CC(C)(C)c1ccc(OC(=O)c2cccnc2)cc1,EC50,[5],> 195 µM (not active)
CC1(C)CC(=O)c2cc(OCC(=O)N3CCN(c4ccccc4F)CC3)ccc2O1,EC50,[5],> 195 µM (not active)
CN(C)S(=O)(=O)c1ccc(C(=O)OCCCNC2=NS(=O)(=O)c3ccccc32)cc1,EC50,[5],26 µM (active)
CSc1cccc(-c2nnc(NC(=O)c3cccc(N4C(=O)CCC4=O)c3)o2)c1,EC50,[8],> 150 µM (not active)
same,EC50,[9],4.88 µM (active)
same,EC50,[10],131 µM (active)
Cc1c([C@@H](C)[C@H]2NC[C@H](C)C[C@@H]2O)ccc2c1C[C@@H]1[C@H]2CC=C2C[C@@H](O)CC[C@@]21C,AC50,[7],3.16 µM (inconclusive)
Cc1ccc(C)c(C(=O)CN2C3=NCCCN3c3ccccc32)c1,AC50,[7],12.6 µM (inconclusive)
same,AC50,[3],39.8 µM (inconclusive)
O=C(Nc1ccc(/C=C/c2nc3ccccc3o2)cc1)c1c(F)cccc1F,CC50,[1],> 50 µM (active)
O=C(O)/C=C/c1cn(-c2ncc(C(F)(F)F)cc2Cl)c2ccccc12,AC50,[2],17.8 µM (inconclusive)
same,AC50,[3],14.1 µM (inconclusive)
same,AC50,[4],35.5 µM (inconclusive)
CCOC(=O)c1cnn(-c2nc(-c3ccccc3F)cs2)c1C(F)(F)F,EC50,[8],34.3 µM (active)
same,EC50,[9],17.9 µM (active)
same,EC50,[10],23.8 µM (active)
CCN(CC)C(=O)COC(=O)c1ccc(C)c(NC(=O)c2ccco2)c1,EC50,[5],> 195 µM (not active)
O=C(Nc1ccc(-c2csc(Nc3ccccc3)n2)cc1)c1cc([N+](=O)[O-])cc(C(F)(F)F)c1,CC50,[1],14.6 µM (active)
Cc1ccc2nc(NC(=O)c3ccc(NS(=O)(=O)c4cccs4)cc3)sc2c1,CC50,[1],25.1 µM (active)
O=c1c(-c2ccccc2)nc2cnc(N3CCNCC3)nc2n1-c1ccccc1,AC50,[7],20 µM (inconclusive)
CCCNC(=O)OC[C@@H]1O[C@H](CCO/N=C\c2ccc(C(=O)N3[C@H](c4ccc(C)cc4)[C@@H](C)CC[C@H]3C(=O)OC)cc2)C=C[C@@H]1Oc1ccc(OC)cc1,AC50,[7],3.16 µM (inconclusive)
same,AC50,[3],1.26 µM (inconclusive)
COC(=O)c1cc(-c2cccc(OC)c2)c2c(=O)[nH]c(=O)n(C)c2n1,EC50,[8],> 150 µM (not active)
same,EC50,[9],6.29 µM (active)
same,EC50,[10],11.7 µM (active)
COc1ccc(-c2cc(C(F)(F)F)n3ncc(C(=O)N(C)Cc4ccccc4)c3n2)cc1,CC50,[1],32.9 µM (active)
Cc1nc2cnc(Oc3ccccc3)nc2n(CCC#N)c1=O,AC50,[7],25.1 µM (inconclusive)
same,AC50,[4],20 µM (inconclusive)
CC(C)Nc1nc(NC(C)C)nc(N(C)N)n1,EC50,[8],> 150 µM (not active)
same,EC50,[9],32.9 µM (active)
same,EC50,[10],> 150 µM (not active)
Ic1ccccc1CN[C@@H]1C2CCN(CC2)[C@H]1C(c1ccccc1)c1ccccc1,AC50,[7],20 µM (inconclusive)
same,AC50,[4],12.6 µM (inconclusive)
C1CCC(Nc2nnnn2C2CCCCC2)CC1,EC50,[5],> 195 µM (not active)
Cc1cccc(-c2nnc(NC(=O)c3cccs3)s2)c1,EC50,[5],> 195 µM (not active)
CC(C)c1ccc(NC2(C#N)C(=O)Nc3ccccc32)cc1 (stereo not drawn),EC50,[5],> 195 µM (not active)
O=C(COC(=O)c1ccccc1SCC(=O)N1CCCC1)NC1CCS(=O)(=O)C1 (stereo not drawn),EC50,[5],> 195 µM (not active)
O=C(NCC1CCCO1)c1ccc2c(=O)n(Cc3ccco3)c(SCC(=O)N3CCCC3)nc2c1 (stereo not drawn),AC50,[7],12.6 µM (inconclusive)
same,AC50,[3],15.8 µM (inconclusive)
O=C(Nc1ccc(N2CCCC2)c(Cl)c1)c1ccc(Br)o1,EC50,[11],1.63 µM (active)
same,CC50,[1],30.6 µM (active)
same,EC50,[12],> 60 µM (not active)
CNc1oc(-c2ccc(Cl)cc2)nc1C#N,AC50,[2],8.91 µM (inconclusive)
same,AC50,[6],22.4 µM (inconclusive)
same,AC50,[7],14.1 µM (inconclusive)
O=S(=O)(NC(=Nc1ccc(F)cc1F)c1ccc(Cl)cc1)c1ccccc1,AC50,[7],2.82 µM (inconclusive)
CC1CCCCN1CC(=O)Nc1ccccc1Sc1ccccc1 (stereo not drawn),EC50,[5],> 195 µM (not active)
CCOC(=O)c1c(C)[nH]c(C(=O)N2CCc3cc(OC)c(OC)cc3C2)c1C,CC50,[1],34.8 µM (active)
Cc1ccccc1C(=O)Nc1scc(-c2ccc(Br)cc2)c1C(=O)O,EC50,[8],> 150 µM (not active)
same,EC50,[9],3.46 µM (active)
same,EC50,[10],7.36 µM (active)
CCOc1ccc(N2CSC(=S)N(c3ccc(OCC)cc3)C2)cc1,EC50,[5],> 195 µM (not active)
COc1ccc(Oc2ncc3nc(-c4ccc(OC)cc4)c(=O)n(C)c3n2)cc1,AC50,[7],3.98 µM (inconclusive)
same,AC50,[4],3.16 µM (inconclusive)
CCc1ccccc1NC(=O)NNS(=O)(=O)c1cc(C)ccc1C,EC50,[8],4.21 µM (active)
same,EC50,[9],> 150 µM (not active)
same,EC50,[10],> 150 µM (not active)
CC1CCN(S(=O)(=O)c2ccc(C(=O)Nc3nnc(-c4ccccn4)o3)cc2)CC1,EC50,[5],45.5 µM (active)
COc1ccc(Nc2nc(N)nc(CSc3n[nH]c(-c4ccccc4)n3)n2)cc1,AC50,[2],12.6 µM (inconclusive)
same,AC50,[6],3.55 µM (inconclusive)
same,AC50,[7],3.98 µM (inconclusive)
CCCCNc1nc2cccnc2s1,EC50,[5],> 195 µM (not active)
CCOC(=O)C1CCCN(c2nc3ccccc3nc2C(C#N)C(=O)OCCOC)C1 (stereo not drawn),CC50,[1],41.7 µM (active)
C[n+]1c(/C=C/c2ccc(O)c3ncccc23)[se]c2ccccc21,AC50,[2],6.31 µM (inconclusive)
same,AC50,[7],3.98 µM (inconclusive)
same,AC50,[3],3.98 µM (inconclusive)
Cc1nc2ccccc2c(=O)n1NC(=O)c1ccccc1Cl,AC50,[7],22.4 µM (inconclusive)
same,AC50,[4],15.8 µM (inconclusive)
C=CC/N=C1\S/C(=C\c2ccc(Cl)cc2)C(=O)N1CC=C,CC50,[1],44.3 µM (active)
O=C(Cc1ccccc1)N/N=C/c1cc(Br)c(Br)o1,AC50,[7],28.2 µM (inconclusive)
CC(=O)C1C(=O)c2c(cccc2[N+](=O)[O-])/C1=N\c1ccc(S(N)(=O)=O)cc1 (stereo not drawn),EC50,[5],> 195 µM (not active)
O=C(O)c1cccc(NC(=S)N/N=C/c2cccnc2)c1,EC50,[5],> 195 µM (not active)
COc1ccc(CN2/C(=N/C(=O)CCC3CCCC3)SC3CS(=O)(=O)CC32)cc1 (stereo not drawn),EC50,[5],> 195 µM (not active)
O=C(O)c1c(Cl)c(Cl)c(Cl)c(Cl)c1C(=O)Nc1ccc2cn[nH]c2c1,AC50,[6],3.98 µM (inconclusive)
same,AC50,[7],3.98 µM (inconclusive)
